For data set [1], the system named is MCF-7 breast adenocarcinoma. The data set is classed as cell-based, human. To be noted: 24 h. The procedure: (§1) Aliquots of 100 μl of tumor cell suspension (about 2.5-5×10^3/well) were placed in 96-well microtiter plates in an atmosphere of 5% CO2 at 37° C. […] At the end of incubation, 20 μl of AlamarBlue 75% reagent was added to each well for another 6-hour incubation before detection of cell viability by fluorescence intensity. Fluorescence intensity was measured using a Spectraflour Plus plate reader with excitation at 530 nm and emission at 590 nm. The assays were used to detect changes in cell proliferation based on the ability of viable cells to cause AlamarBlue to change from its oxidized (non-fluorescent, blue) to a reduced (fluorescent, red) form. With the results obtained from the AlamarBlue reaction, cell proliferation can be quantified and metabolic activity of viable cells can be examined.

The subject of data set [2] is SK-MEL- (ATCC HTB-70) malignant melanoma. The data set is classed as cell-based, human. Conditions: 24 h. As to the method:
as §1

Data set [3] concerns HT-29 colon adenocarcinoma. Format: cell-based, human. Conditions: 24 h. The procedure:
as §1

In data set [4] the test system is PC-3 prostate adenocarcinoma. The data set is classed as cell-based, human. Conditions: 24 h. The procedure: as §1
Data set [5] deals with A549 lung carcinoma. The data set is classed as cell-based, human. Conditions: 24 h. As to the method:
as §1

Data set [6] relates to Staphylococcus aureus ATCC 6538P. As to the method:
(§2) The antibacterial activity of the peptides was examined in sterile 96-well plates (Nunc F96 microtiter plates) in a final volume of 100 μl as follows: Aliquots (50 μl) of a suspension containing bacteria at concentration of 1×10^6 Colony-Forming Units (CFU)/ml in culture LB (Lauria broth) medium were added to 50 μl of water containing the peptide in serial 2-fold dilutions in water. Inhibition of growth was determined by measuring the absorbance at 600 nm with a Microplate autoreader E1309 (Bio-tek Instruments), after an incubation time of 18-20 h at 37° C. Antibacterial activities were expressed as the minimal inhibitory concentration (MIC), the concentration at which 100% inhibition of growth was observed after 18-20 h of incubation. […]
(§3) The antibacterial activity of the resulting liposomal diastereomeric peptide preparations were examined as described in Example 2 above. The MICs of liposomal peptide 9 in various lipid compositions and peptide/lipid ratios (as described above), or of liposomes at lipid compositions equivalent to the loaded_liposomes (not shown) or peptide 9 alone, were determined using the following bacteria: Acinetobacter baumannii ATCC 19606, and Staphylococcus aureus ATCC 6538P.

Data set [7] relates to Acinetobacter baumannii ATCC 19606. As to the method:
as §2, §3

Data set [8] deals with B16 F10 mouse melanoma cell line. Description: In vitro anticancer activity, Trypan blue cell viability, LC50. To be noted: 50% cell mortality after 24 h incubation, medium without serum. The procedure:
The anticancer activity of the diastereomers 1, 2, 8, 9 and 10 was examined against B16 F10 mouse melanoma cell line. Melanoma cells were grown in RPMI-1640 medium supplemented with 10% fetal calf serum and antibiotics, at 37° C., in humidified atmosphere at 5% CO2 and 95% air. In addition, the cell-selectivity of the diastereomeric peptides was studied by examining their effect on NIH-3T3 normal fibroblasts cell line. NIH-3T3 mouse fibroblasts cells were grown in DMEM medium supplemented with 10% bovine calf serum and antibiotics under the same conditions as described above for B16 F10 mouse melanoma cells. Melanoma cells (2×10^5 cells ml^−1) or NIH-3T3 cells (2.5×10^5 cells ml^−1) were seeded in tissue culture plates (3.5 cm). After 48 h, cells were washed thrice with the corresponding medium. Then the cells were incubated at 37° C. in medium (without serum and antibiotics) in the presence of the tested diastereomeric peptides dissolved in PBS, at different concentrations. […] Following 24 h of incubation, the cells were harvested with trypsin (0.25%)-EDTA (0.05%) and centrifuiged for 10 min at 270×g. The precipitated cells were suspended in the corresponding medium and counted in a hemocytometer (Neubauer). Cell viability was determined by Trypan blue dye exclusion.

Data set [9] can be described thus: Cell selectivity, Trypan blue cell viability, LC50. The data set is classed as cell-based, mouse. To be noted: mouse, NIH-3T3 fibroblasts; 50% cell mortality after 24 h incubation, medium without serum; read-out: Lethal Concentration (LC50), NIH-3T3 fibroblasts.
Data set [10] concerns human breast MCF-7 cells. Nature of the data set: Xenograft model of human breast MCF-7 cells in SCID mice. To be noted: mouse, in vivo. The data set is classed as in vivo. The procedure: The in-vivo anticancer assay was conducted on SCID (Severe Combined Immune Deficiency) mice using the xenograft model of human breast MCF-7 cells. Groups of 6 SCID female mice weighing 18-20 g (6-week old), bred in an animal isolator (IVC racks under specific pathogen-free (SPF) conditions at 24±1° C., were used. Viable human breast carcinoma MCF-7 cells (ATCC HTB-22−1×10^7 cells in 0.2 ml of PBS) were injected subcutaneously (s.c.) into the dorsal side of SCID mice. 50 μg/mouse of estradiol benzoate was injected s.c. weekly as a supplement for 4 weeks. […] Mitomycin at a dose of 2 mg/kg was administered intraperitoneally (IP) twice a week for 5 doses. The tumor size, body weight and the signs of overt animal toxicity after each treatment were recorded and observed. At the end of the experiment, hematological analysis was carried out.
For orientation: In xenograft studies the graft and the host belong to different species.

The nature of data set [11]: In vivo toxicity, single i.v. bolus injection in CD1 mice. Details: species or system CD1 male mice. As to the method:
The in vivo toxicity of the liposomal peptide 9 preparation composed of the lipids PC/PG (9:1 w/w) at a 10:1 w/w lipid/peptide ratio was examined. Groups of 5 CD1 male mice weighing 24-27 g (5-week old), bred in an animal isolator (IVC racks) under specific pathogen-free (SPF) conditions at 24±1° C., were used. Twelve mg/kg liposomal peptide 9 or peptide 9 alone dissolved in PBS in a dosing volume of 10 ml/kg, were administered by single i.v. bolus injection via the mice tail vein. In parallel, control groups received i.v. injections of equivalent liposomes alone or PBS in a dosing volume of 10 ml/kg.

≈ marks a conversion by molar mass, not a printed value. Square brackets hold non-standard residues; d marks the D form. Peptide text beside a SMILES is read from it.

For the compound `CC(C)C[C@H](NC(=O)[C@H](CCCNC(=N)N)NC(=O)[C@@H](CC(C)C)NC(=O)[C@H](CC(C)C)NC(=O)[C@@H](N)CCCCN)C(=O)N[C@@H](CC(C)C)C(=O)N[C@H](CCCCN)C(=O)N[C@H](CCCCN)C(=O)N[C@@H](CC(C)C)C(=O)N[C@H](CC(C)C)C(=O)N[C@@H](CCCNC(=N)N)C(=O)N[C@@H](CC(C)C)C(=O)N[C@H](CC(C)C)C(=O)N[C@@H](CC(C)C)C(=O)N[C@@H](CCCCN)C(N)=O` [Peptide 9, [D]-L^3,10,13,K^7,8-K4R2L9] (H-KL[dL]RLL[dK][dK]L[dL]RL[dL]LK-NH2), it took 3.3 µM to reach half-maximal inhibition in [1] (IC50). It took 1.2 µM to reach half-maximal inhibition in data set [2] (IC50). Besides, in data set [3], the midpoint of inhibition, the IC50, lay at 2.2 µM. In [4], the IC50 (in general, the concentration that inhibits the measured activity by half) turned out to be 1.6 µM. Moreover, in [5], the IC50 came out at 1.4 µM. In addition, the “MIC of liposomal peptide 9, S. aureus” value in data set [6] stood at 12.5 µg/mL. Besides, the “MIC of liposomal peptide 9, A. baumannii” value in [7] was 3.1 µg/mL. In addition, the “Lethal Concentration (LC50), B16-F10 melanoma” value in data set [8] is 2 µg/mL. Further, the CC50 at 24 h in data set [9] turned out to be 30 µg/mL (≈ 16.1 µM). Also, in data set [10], the PLT came to 1.31e+06 µL⁻¹; the RBC was 11.18 ± 0.11 × 10^6/μl; the “Reduction of RBC” value was “only a slight reduction in RBC”; the “Reduction of WBC and platelets” value was “did not cause a reduction in WBC and platelets”. Also, the WBC in data set [10] was 2220 µL⁻¹. For the same compound, in data set [11] (12 mg/kg injected i.v.), the Mortality is recorded as 80%. For the same compound, the Incidence of mortality in data set [11] (12 mg/kg single i.v. injection) was 4/5.

The record behind these values is patent US20040053847A1, “Diastereomeric peptitdes and pharmaceutical compositions comprising them” (priority 2000, published 2004).
